{"source": "ChEMBL document CHEMBL6114980", "about": "“Single or double lipid-modified ultra-short antimicrobial peptides for treating infections caused by resistant bacteria” (Eur J Med Chem, 2025)", "key": {"[1]": {"test_system": "Escherichia coli", "experiment": "Antibacterial activity against Escherichia coli 25922 at sub-MIC concentration measured after 15 passages in presence of rifampin", "assay_type": "functional, organism-based"}, "[2]": {"test_system": "Escherichia coli", "experiment": "Antibacterial activity against Escherichia coli assessed as reduction in survival bacterial growth in presence <=0.2 ug/ml of trypsin measured after1 hr by absorbance based analysis", "assay_type": "functional, organism-based", "conditions": "time 1.0 hrs"}, "[3]": {"experiment": "Acute toxicity in male BALB/c mouse assessed distorted alveolar morphology at 100 to 130 mg/kg, ip measured after 7 days by H and E staining based analysis", "assay_type": "organism-based", "conditions": "in vivo, 168 h, dose 100-130 mg/kg, time 7 day"}, "[4]": {"experiment": "Acute toxicity in male BALB/c mouse assessed increase in interstitial space at 100 to 130 mg/kg, ip measured after 7 days by H and E staining based analysis", "assay_type": "organism-based", "conditions": "in vivo, 168 h, dose 100-130 mg/kg, time 7 day"}, "[5]": {"test_system": "Staphylococcus aureus", "experiment": "Antibacterial activity against Staphylococcus aureus assessed as reduction in survival bacterial growth in presence of FeCl3 measured after 18 to 24 hrs (reference value: 4 microM)", "assay_type": "functional", "conditions": "time 18-24 hrs"}, "[6]": {"experiment": "Acute toxicity in male BALB/c mouse assessed effect on edema in kidney at 100 to 130 mg/kg, ip measured after 7 days by H and E staining based analysis", "assay_type": "organism-based", "conditions": "in vivo, 168 h, dose 100-130 mg/kg, time 7 day"}, "[7]": {"test_system": "Staphylococcus aureus", "experiment": "Antibacterial activity against Staphylococcus aureus assessed as reduction in survival bacterial growth in presence of MgCl2 measured after 18 to 24 hrs (reference value: 4 microM)", "assay_type": "functional", "conditions": "time 18-24 hrs"}, "[8]": {"test_system": "Escherichia coli", "experiment": "Antibacterial activity against Escherichia coli assessed as reduction in survival bacterial growth in presence of MgCl2 measured after 18 to 24 hrs (reference value: 8 microM)", "assay_type": "functional", "conditions": "time 18-24 hrs"}, "[9]": {"test_system": "Staphylococcus aureus", "experiment": "Induction of morphological changes in Staphylococcus aureus assessed as cell adhesion at 2 times MIC measured after 120 mins by SEM analysis", "assay_type": "functional, organism-based"}, "[10]": {"test_system": "Staphylococcus aureus", "experiment": "Additive antibacterial activity against Staphylococcus aureus 25923 assessed as fractional inhibitory in presence of cephalothin by checker board assay", "assay_type": "functional"}, "[11]": {"experiment": "Acute toxicity in male BALB/c mouse assessed effect on edema in heart at 100 to 130 mg/kg, ip measured after 7 days by H and E staining based analysis", "assay_type": "organism-based", "conditions": "in vivo, 168 h, dose 100-130 mg/kg, time 7 day"}, "[12]": {"experiment": "Acute toxicity in male BALB/c mouse assessed congestion at 100 to 130 mg/kg, ip measured after 7 days by H and E staining based analysis", "assay_type": "organism-based", "conditions": "in vivo, 168 h, dose 100-130 mg/kg, time 7 day"}, "[13]": {"test_system": "Staphylococcus aureus", "experiment": "Synergistic antibacterial activity against methicillin-resistant Staphylococcus aureus assessed as fractional inhibitory in presence of streptomycin by checker board assay", "assay_type": "functional"}, "[14]": {"test_system": "Staphylococcus aureus", "experiment": "Antibacterial activity against Staphylococcus aureus assessed as reduction in survival bacterial growth in presence of KCl measured after 18 to 24 hrs (reference value: 4 microM)", "assay_type": "functional", "conditions": "time 18-24 hrs"}, "[15]": {"test_system": "Staphylococcus aureus", "experiment": "Additive antibacterial activity against methicillin-resistant Staphylococcus aureus 113 assessed as fractional inhibitory in presence of polymyxin B by checker board assay", "assay_type": "functional"}, "[16]": {"test_system": "Escherichia coli", "experiment": "Antibacterial activity against Escherichia coli assessed as reduction in survival bacterial growth in presence of NaCl measured after 18 to 24 hrs (reference value: 8 microM)", "assay_type": "functional", "conditions": "time 18-24 hrs"}, "[17]": {"experiment": "Acute toxicity in male BALB/c mouse assessed effect on edema in spleen at 100 to 130 mg/kg, ip measured after 7 days by H and E staining based analysis", "assay_type": "organism-based", "conditions": "in vivo, 168 h, dose 100-130 mg/kg, time 7 day"}, "[18]": {"experiment": "Acute toxicity in male BALB/c mouse assessed increase in inflammatory cell infiltration at 100 to 130 mg/kg, ip measured after 7 days by H and E staining based analysis", "assay_type": "organism-based", "conditions": "in vivo, 168 h, dose 100-130 mg/kg, time 7 day"}, "[19]": {"test_system": "Cell membrane", "experiment": "Induction of outer membrane permeabilization in Escherichia coli assessed as increase in fluorescence intensity at 0.5 times MIC measured for 10 mins by fluorescence based NPN uptake assay"}, "[20]": {"test_system": "Staphylococcus aureus", "experiment": "Antibacterial activity against Staphylococcus aureus assessed as reduction in survival bacterial growth in presence of ZnCl2 measured after 18 to 24 hrs (reference value: 4 microM)", "assay_type": "functional", "conditions": "time 18-24 hrs"}, "[21]": {"test_system": "Staphylococcus aureus", "experiment": "Antibacterial activity against Staphylococcus aureus assessed as reduction in survival bacterial growth in presence of Mgcl2 measured after 18 to 24 hrs (reference value: 8 microM)", "assay_type": "functional", "conditions": "time 18-24 hrs"}, "[22]": {"test_system": "Staphylococcus aureus", "experiment": "Additive antibacterial activity against methicillin-resistant Staphylococcus aureus assessed as fractional inhibitory in presence of streptomycin by checker board assay", "assay_type": "functional"}, "[23]": {"test_system": "Staphylococcus aureus", "experiment": "Synergistic antibacterial activity against Staphylococcus aureus 25923 assessed as fractional inhibitory in presence of cephalothin by checker board assay", "assay_type": "functional"}, "[24]": {"experiment": "Acute toxicity in male BALB/c mouse assessed inflammatory cell infiltration in kidney at 100 to 130 mg/kg, ip measured after 7 days by H and E staining based analysis", "assay_type": "organism-based", "conditions": "in vivo, 168 h, dose 100-130 mg/kg, time 7 day"}, "[25]": {"test_system": "Escherichia coli", "experiment": "Antibacterial activity against Escherichia coli assessed as reduction in survival bacterial growth in presence <=0.02 ug/ml of trypsin measured after1 hr by absorbance based analysis", "assay_type": "functional, organism-based", "conditions": "time 1.0 hrs"}, "[26]": {"test_system": "Staphylococcus aureus", "experiment": "Synergistic antibacterial activity against methicillin-resistant Staphylococcus aureus 113 assessed as fractional inhibitory in presence of polymyxin B by checker board assay", "assay_type": "functional"}, "[27]": {"experiment": "Acute toxicity in male BALB/c mouse assessed inflammatory cell infiltration in spleen at 100 to 130 mg/kg, ip measured after 7 days by H and E staining based analysis", "assay_type": "organism-based", "conditions": "in vivo, 168 h, dose 100-130 mg/kg, time 7 day"}, "[28]": {"test_system": "Staphylococcus aureus", "experiment": "Antibacterial activity against Staphylococcus aureus assessed as reduction in survival bacterial growth in presence of NaCl measured after 18 to 24 hrs (reference value: 8 microM)", "assay_type": "functional", "conditions": "time 18-24 hrs"}, "[29]": {"experiment": "Acute toxicity in male BALB/c mouse assessed inflammatory cell infiltration in lung at 100 to 130 mg/kg, ip measured after 7 days by H and E staining based analysis", "assay_type": "organism-based", "conditions": "in vivo, 168 h, dose 100-130 mg/kg, time 7 day"}, "[30]": {"experiment": "Acute toxicity in male BALB/c mouse assessed partial hepatocyte necrosis at 100 to 130 mg/kg, ip measured after 7 days by H and E staining based analysis", "assay_type": "organism-based", "conditions": "in vivo, 168 h, dose 100-130 mg/kg, time 7 day"}, "[31]": {"test_system": "Cell membrane", "experiment": "Induction of cytoplasmic membrane depolarization in Escherichia coli assessed as increase in fluorescence intensity at 0.5 to 2 times MIC measured for 10 mins by DiSC3-5 dye based fluorescence assay"}, "[32]": {"experiment": "Acute toxicity in male BALB/c mouse assessed inflammatory cell infiltration in liver at 100 to 130 mg/kg, ip measured after 7 days by H and E staining based analysis", "assay_type": "organism-based", "conditions": "in vivo, 168 h, dose 100-130 mg/kg, time 7 day"}, "[33]": {"test_system": "Staphylococcus aureus", "experiment": "Antibacterial activity against Staphylococcus aureus assessed as reduction in survival bacterial growth in presence of ZnCl2 measured after 18 to 24 hrs (reference value: 8 microM)", "assay_type": "functional", "conditions": "time 18-24 hrs"}, "[34]": {"test_system": "Cell membrane", "experiment": "Induction of outer membrane permeabilization in Escherichia coli assessed as increase in fluorescence intensity at 1 times MIC measured for 10 mins by fluorescence based NPN uptake assay"}}, "note": "Calls of active or inactive are those of the source. No cut-off for these calls is given here. Peptide text beside a SMILES is read from it. * marks the point of attachment. Lauroyl = CCCCCCCCCCCC(=O)*; Octanoyl = CCCCCCCC(=O)*"}
{"smiles": "CCCCCCCCCCCC(=O)N[C@@H](CCCCN)C(=O)N[C@@H](CCCCN)C(=O)N[C@@H](Cc1c[nH]c2ccccc12)C(=O)N[C@@H](Cc1c[nH]c2ccccc12)C(N)=O", "note": "(Lauroyl-KKWW-NH2)", "values": [{"measurement": "Activity", "setting": "[1]", "value": "Active"}, {"measurement": "Activity", "setting": "[2]", "value": "Active"}, {"measurement": "Activity", "setting": "[3]", "value": "Toxic"}, {"measurement": "Activity", "setting": "[4]", "value": "Toxic"}, {"measurement": "MIC", "setting": "[5]", "value": 2, "unit": "µM"}, {"measurement": "Activity", "setting": "[6]", "value": "Non-toxic"}, {"measurement": "MIC", "setting": "[7]", "value": 4, "unit": "µM"}, {"measurement": "MIC", "setting": "[8]", "value": 8, "unit": "µM"}, {"measurement": "Activity", "setting": "[9]", "value": "Active"}, {"measurement": "fractional inhibitory concentration index (FICI)", "setting": "[10]", "value": 0.562}, {"measurement": "Activity", "setting": "[11]", "value": "Non-toxic"}, {"measurement": "Activity", "setting": "[12]", "value": "Toxic"}, {"measurement": "fractional inhibitory concentration index (FICI)", "setting": "[13]", "value": 0.375}, {"measurement": "MIC", "setting": "[14]", "value": 4, "unit": "µM"}, {"measurement": "fractional inhibitory concentration index (FICI)", "setting": "[15]", "value": 0.625}, {"measurement": "MIC", "setting": "[16]", "value": 8, "unit": "µM"}, {"measurement": "Activity", "setting": "[17]", "value": "Non-toxic"}, {"measurement": "Activity", "setting": "[18]", "value": "Toxic"}, {"measurement": "Activity", "setting": "[19]", "value": "Active"}, {"measurement": "MIC", "setting": "[20]", "value": 4, "unit": "µM"}]}
{"smiles": "CCCCCCCC(=O)NCCCC[C@H](NC(=O)CCCCCCC)C(=O)N[C@@H](CCCCN)C(=O)N[C@@H](CCCCN)C(=O)N[C@@H](Cc1c[nH]c2ccccc12)C(=O)N[C@@H](Cc1c[nH]c2ccccc12)C(N)=O", "note": "(Octanoyl-K(Octanoyl)KKWW-NH2)", "values": [{"measurement": "MIC", "setting": "[21]", "value": 8, "unit": "µM"}, {"measurement": "fractional inhibitory concentration index (FICI)", "setting": "[22]", "value": 0.562}, {"measurement": "fractional inhibitory concentration index (FICI)", "setting": "[23]", "value": 0.5}, {"measurement": "Activity", "setting": "[24]", "value": "Non-toxic"}, {"measurement": "Activity", "setting": "[25]", "value": "Active"}, {"measurement": "fractional inhibitory concentration index (FICI)", "setting": "[26]", "value": 0.312}, {"measurement": "Activity", "setting": "[27]", "value": "Non-toxic"}, {"measurement": "MIC", "setting": "[28]", "value": 8, "unit": "µM"}, {"measurement": "Activity", "setting": "[29]", "value": "Non-toxic"}, {"measurement": "Activity", "setting": "[30]", "value": "Non-toxic"}, {"measurement": "Activity", "setting": "[31]", "value": "Active; Compound Showed Similar Effect As Quality Control Polymyxin B"}, {"measurement": "Activity", "setting": "[32]", "value": "Non-toxic"}, {"measurement": "MIC", "setting": "[33]", "value": 8, "unit": "µM"}, {"measurement": "Activity", "setting": "[34]", "value": "Active"}]}
